Data taken from patent publication US20240335401A1, “SUBSTITUTED PHENETHYLAMINE FOR TREATING INFLAMMATION AND PSYCHOLOGICAL DISORDERS” (SYNAPTIVE THERAPEUTICS LLC, priority 2022, published 2024).

Experiments:
mice [1] = assay: EPM apparatus, time spent on the open arms (anxiety); format: in vivo; conditions: sub-hallucinogenic dose, EPM for 5 minutes, compared to saline, FIG. 4
Protocol: FIG. 4 is a graph showing the time spent on the open arm by mice treated with 2C-B for increasing amounts of time.
(§1) Mice were administered increasing amounts of 2C-B to identify sub-hallucinogenic doses (FIG. 3). It was determined that a dose of 0.025 mg/kg can be orally administered to mice without showing any signs of hallucination. Mice were then administered 2C-B for increasing amounts of time, then placed on the EPM apparatus for 5 minutes and time spent on the open arms obtained. As it can be seen in FIG. 4, the sub-hallucinogenic dose of 2C-B was capable of reducing anxiety in mice.

[2] = taken recreationally; cited from earlier work
mice [3] = assay: Signs of hallucination in mice at increasing doses; format: in vivo; conditions: oral, FIG. 3
Protocol: FIG. 3 is a plot of % mice showing sign of hallucination at increasing doses of 2C-B.
as §1

[4] = tested on: mice injected with a toxic level of LPS; assay: Lethal septic event after a toxic level of LPS in mice; format: in vivo; conditions: FIG. 2
Protocol: FIG. 2 is a plot showing % mice that died after injection of a toxic level of LPS when administered 2C-H or vehicle control.
(§2) In another experiment, mice were also injected with a toxic level of LPS to initiate a lethal septic event, which was attenuated by administration of 2C-H (FIG. 2).

TNFa in circulation = assay: LPS-induced inflammatory response in mice, TNFa in circulation; format: in vivo; conditions: mice injected with LPS; subcutaneous administration; FIG. 1
Protocol: FIG. 1 is a graph showing the level of TNF-α in serum of mice injected with LPS to induce inflammation and administered 2C-H or control vehicle.
as §2

Row | Compound | time spent on the open arm (mice [1]) | threshold unit dose that can cause psychedelic activity [2] | dose that can be orally administered without showing any signs of hallucination (mice [3]) [mg/kg] | lethal septic event (% mice that died) [4] | inflammatory response (measured by TNFa in circulation) (TNFa in circulation)
1 | COc1cc(CCN)c(OC)cc1Br [2C-B, 4-Bromo-2,5-dimethoxyphenethylamine] | increased time spent on the open arm compared to saline | about 5 mg | 0.025 | – | –
2 | CCc1cc(OC)c(CCN)cc1OC [2C-E, 4-Ethyl-2,5-dimethoxyphenethylamine] | – | about 2 mg | – | – | –
3 | COc1ccc(OC)c(CCN)c1 [2C-H] | – | – | – | attenuated | quickly quelled
4 | COc1cc(CCN)c(OC)cc1I [2C-I, 2-(4-lodo-2,5-dimethoxyphenyl)ethan-1-amine] | – | about 2 mg | – | – | –
